From patent US6512166B1, “Combinations of fungal cell wall degrading enzyme and fungal cell membrane affecting compound” (priority 1991, dated 2003)
Where two headings read alike, the source gives them in different places.

Key:
[1] = test system: Botrytis cinerea; experiment: Inhibition of spore germination, Eppendorf tube assay (Examples I and II); format: cell-based; details: for inhibition at 0.5 µg/mL: read-out: % inhibition; for % inhibition: enzyme 0 μg ml^−1 (fungicide alone); for % inhibition / Ee, expected effect from an additive response according to Limpel's formula, percent inhibition / Io, percent inhibition observed: flusilazole 5 ng ml^−1, miconazole 0.5 μg ml^−1; for ED50 of fungicide (dose effective for 50% inhibition): Table 9
[2] = test system: B. cinerea strain 12; experiment: Inhibition of spore germination, ELISA plate assay (Examples III-XVI, XVIII); format: cell-based, Botrytis cinerea; details: Table 20; concentration of flusilazole for 50% inhibition, alone or with enzyme at its ED10 concentration
Description: (§1) The concentration where fungal cell wall degrading enzyme individually provides a specified percentage fungal inhibition or where antifungal fungal cell membrane affecting compound individually provides a specific percentage fungal inhibition can be determined as follows: Assays are performed under sterile conditions. Equal volumes of spore suspensions, 3× potato dextrose broth, and the test solution or suspension in 5 mM Tris-HCl (pH 6.0) or 5 mM potassium phosphate buffer (pH 6.7) are mixed. The control is the same as the test solution except for the control the antifungal agent is omitted. The assay mixtures (total volume 45 or 30 μl) are incubated on flat-bottomed ELISA plates, each containing 96 wells, with 2,000 to 3,000 spores per well, at 25° C. After 22 to 30 hours, the plates are placed under an inverted microscope. The percentage of conidia germinating is determined as the percentage of the first 100 spores randomly found in a well. In addition, the lengths of 20 germ tubes are measured and averaged. All experiments are performed twice, with three replicates for each treatment. The inhibition values obtained in the two experiments are combined and averaged, and standard deviations are calculated from the 6 data points. The values obtained for the control are taken as 0% inhibition and all other values are divided by the values obtained for the control and multiplied by 100% to obtain percent inhibition. Determination of concentration corresponding to a particular percent inhibition is carried out by subjecting dose-response curves to regression analysis by using a binomial regression of the third order, with R^2 ranging between 0.95 and 0.99.
(§2) Assays were carried out by the procedure described in the summary of the invention section. Dose response curves were obtained by probit analysis of data collected from two separate experiments with each experiment involving three treatment replicates.
Each of 8 antifungal fungal cell membrane affecting compounds were used in combination with each of 8 or 6 fungal cell wall degrading enzymes to provide 50% inhibition (ED50) of B. cinerea strain 12 spore germination. Each fungal cell wall degrading enzyme was used at a concentration giving 10% inhibition of spore germination when used alone in combination with an amount of antifungal fungal cell membrane affecting compound so the combination gave 50% inhibition of spore germination.
(§3) Dose response curves were determined for each antifungal fungal cell membrane affecting compound and for each fungal cell wall degrading enzyme singly. Then each fungal cell wall degrading enzyme at a concentration giving 10% inhibition when used alone was combined with increasing amounts of antifungal fungal cell membrane affecting compound. Then the concentration of antifungal fungal cell membrane affecting compound causing the ED50 for each combination was calculated by probit analysis of data collected from two experiments with three treatment replicates for each experiment. Assays for inhibition of spore germination were carried out as described in the summary of invention section above.
The relative level of synergism (RS below) for each combination was calculated by applying Limpel's formula: Ee=X+Y−(XY/100) as described in Richer, D. L, Pestic. Sci. 19, 309-315, 1987. In Limpel's formula, X and Y are the percentages of inhibition relative to each compound used alone and Ee is the expected effect for an additional (non-synergistic) effect. If the combination of the two agents produces an observed effect (Eo) greater than Ee, synergism exists, and as the difference between Eo and Ee increases, the level of synergism is greater. […]

[3] = test system: Fusarium oxysporum strain FOP1; experiment: Inhibition of spore germination, ELISA plate assay (Examples V-XIV, XVII); format: cell-based; details: Table 28; concentration of flusilazole for 50% inhibition, alone or with enzyme at its ED10 concentration
Description: as §1, §2, §3
The relative level of synergism (RS below) for each combination was calculated by applying Limpel's formula: Ee=X+Y−(XY/100) as described in Richer, D. L, Pestic. Sci. 19, 309-315, 1987. In Limpel's formula, X and Y are the percentages of inhibition relative to each compound used alone and Ee is the expected effect for an additional (non-synergistic) effect. If the combination of the two agents produces an observed effect (Eo) greater than Ee, synergism exists, and as the difference between Eo and Ee increases, the level of synergism is greater. In this experiment, the X value (percentage inhibition by fungal cell wall degrading enzyme when used alone was chosen to be 10 (10% inhibition of spore germination when used alone) and the observed effect, Eo, was 50 (i.e., 50% inhibition of spore germination). The Y values were obtained from the determined concentrations of antifungal cell membrane affecting compound causing the ED50 for a combination and the dose response curves for the antifungal cell membrane affecting compound used alone—i.e., the Y value was the percent inhibition for the antifungal fungal cell membrane affecting compound when used alone for the concentration of antifungal fungal cell membrane affecting compound that was determined to cause the ED50 for the combination. Ee values were then calculated from Limpel's formula. […]

[4] = Solubility, guidance for forming solutions
Text: Compositions for use in the systems herein are readily formulated by admixing the fungal cell wall degrading enzymes and the antifungal fungal cell membrane affecting compounds with non-toxic carriers appropriate for the particular use for a composition, e.g., agriculturally acceptable carriers for agricultural uses and pharmaceutically acceptable carriers for medicinal uses. They may be formulated as liquids (solutions or suspensions) or as solids. Since the fungal cell wall degrading enzymes need free water for activity, water must be present at the time of function. […] Water is a preferred vehicle where components are soluble in it. […] Organic solvents can also be used and may be required in some cases if a solution is desired. Guidance for forming solutions follows. […] Suspension can also be employed.

In the case of `C[Si](Cn1cncn1)(c1ccc(F)cc1)c1ccc(F)cc1` [Flusilazole, flusilazole], the inhibition at 5 ng/mL ([1]; Botrytis cinerea, Table 5, endochitinase from G. virens strain 41 at 25 μg ml^−1, with flusilazole 5 ng ml^−1, miconazole 0.5 μg ml^−1 or none (enzyme alone)) is reported as 89%, the inhibition at 0.5 µg/mL ([1]; Table 4, endochitinase from T. harzianum strain P1 at 75 μg ml^−1, with flusilazole 5 ng ml^−1, miconazole 0.5 μg ml^−1 or none (enzyme alone)) is reported as 100% and the “% inhibition” value ([1]; Table 4) is reported as 18%. The “% inhibition” value ([1]; Table 5) was 18%, the inhibition at 0.5 µg/mL ([1]; Table 6, chitobiosidase from T. harzianum strain P1 at 75 μg ml^−1, with flusilazole 5 ng ml^−1, miconazole 0.5 μg ml^−1 or none (enzyme alone)) was 100% and the “% inhibition” value ([1]; Table 6) was 18%. For the same compound, the “% inhibition” value ([1]; Table 7) was 18%, the inhibition at 0.5 µg/mL ([1]; Table 7, glucan 1,3-β-glucosidase from T. harzianum strain P1 at 100 μg ml^−1, with flusilazole 5 ng ml^−1, miconazole 0.5 μg ml^−1 or none (enzyme alone)) was 100% and the “ED50 of fungicide (dose effective for 50% inhibition)” value ([1]; no endochitinase (0 μg ml^−1)) was 60 ng/mL. The “ED50 of fungicide (dose effective for 50% inhibition)” value ([1]; with endochitinase from T. harzianum strain P1 at 10 μg ml^−1) was 0.7 ng/mL, the “ED50 of fungicide (dose effective for 50% inhibition)” value ([1]; with endochitinase from T. harzianum strain P1 at 25 μg ml^−1) was 0.3 ng/mL and the ED50 of fungicide ([1]; Table 10, no chitobiosidase (0 μg ml^−1)) was 60 ng/mL. The ED50 of fungicide ([1]; Table 10, with chitobiosidase from T. harzianum strain P1 at 25 μg ml^−1) was 1 ng/mL, the ED50 of fungicide ([1]; Table 10, with chitobiosidase from T. harzianum strain P1 at 50 μg ml^−1) was 0.4 ng/mL and the ED50 of fungicide ([1]; Table 10, with chitobiosidase from T. harzianum strain P1 at 75 μg ml^−1) was 0.35 ng/mL. The ED50 of fungicide ([1]; Table 10, with chitobiosidase from T. harzianum strain P1 at 100 μg ml^−1) was 0.3 ng/mL, the ED50 of fungicide ([1]; Table 11, no glucosidase (0 μg ml^−1)) was 60 ng/mL and the ED50 of fungicide ([1]; Table 11, with glucan 1,3-β-glucosidase from T. harzianum strain P1 at 25 μg ml^−1) was 3.3 ng/mL. It also gave an ED50 of fungicide ([1]; Table 11, with glucan 1,3-β-glucosidase from T. harzianum strain P1 at 50 μg ml^−1) of 1 ng/mL, an ED50 of fungicide ([1]; Table 11, with glucan 1,3-β-glucosidase from T. harzianum strain P1 at 75 μg ml^−1) of 0.17 ng/mL and an ED50 of fungicide ([1]; Table 12, no endochitinase (0 μg ml^−1)) of 60 ng/mL. For the same compound, the ED50 of fungicide ([1]; Table 12, with endochitinase from G. virens strain 41 at 25 μg ml^−1) was 2.5 ng/mL, the ED50 of fungicide ([1]; Table 12, with endochitinase from G. virens strain 41 at 50 μg ml^−1) was 1 ng/mL and the ED50 of fungicide ([1]; Table 12, with endochitinase from G. virens strain 41 at 75 μg ml^−1) was 4.5 ng/mL. For the same compound, the ED50 of fungicide ([1]; Table 12, with endochitinase from G. virens strain 41 at 100 μg ml^−1) was 0.22 ng/mL, the “Ee, expected effect from an additive response according to Limpel's formula, percent inhibition” value (shortened to “Ee, expected effect … percent inhibition”) ([1]; with Chitob. (P1) 25 μg ml^−1) was 27% and the “Io, percent inhibition observed” value ([1]; with Endoc. (41) 25 pg ml^−1 (so in the source)) was 67%. For the same compound, the “Ee, expected effect … percent inhibition” value ([1]; with Endoc. (P1) 25 μg ml^−1) was 41%, the “Ee, expected effect … percent inhibition” value ([1]; with Glucan. (P1) 25 μg ml^−1) was 22.1% and the “Io, percent inhibition observed” value ([1]; with Glucan. (P1) 25 μg ml^−1) was 65%. For the same compound, the ED50 [2] was 68 (61-85) ng ml^−1, the ED50 [3] was 59.0 (51-65) ng ml^−1 and the “solubility (solvent in which the substance dissolves)” value [4] was “dissolve in acetone”.
